Like-named read-outs stand apart in the source and are kept apart here.

The target in the assay is WT STING (Homo sapiens, UniProt Q86WV6, H232R). Put plainly: Differential scanning fluorimetry (DSF) with WT STING. As to conditions: for ΔTm at 150 µM: read-out: DSF ΔTm WT STING. Also on record: truncated human WT STING or AQ STING (amino acid residues 140-343); 8xHis (N, cleaved yes); SUMO (N, cleaved yes); made in house; host or cells: E. coli Rosetta-gami B (DE3). Format: binding. From the text: Both WT and AQ human STING (G230A-R^293Q) cDNA were amplified by the use of PCR (Phusion® High-Fidelity DNA Polymerase, cat. # M0530S, NEB, Ipswich, USA) using oligonucleotides hSTING140-BamH-For ([…]) (SEQ ID NO:5) and hSTING379-Not-Rev3 ([…]) (SEQ ID NO:6) from pUNOI-hSTING-WT (cat. # punol-hstingwt, InvivoGen, San Diego, USA) and pUNO1-hSTING-HAQ plasmids (punol-hsting-haq, InvivoGen, San Diego, USA). Purified PCR products were cleaved with restriction enzymes BamHI (cat. # R^0136S, NEB, Ipswich, USA) and NotI (cat. # R^0189S, NEB, Ipswich, USA) and cloned into the pSUMO vector linearized with the identical enzymes. Plasmid pSUMO was created by introducing 8-His-SUMO sequence between NdeI and BamHI sites of pHis-parallel2 plasmid (Clontech, Moutain View, USA). pSUMO-STING WT or pSUMO-STING AQ plasmids thus encoded truncated human WT STING or AQ STING (amino acid residues 140-343) with N-terminal 8×His and SUMO tag.
The recombinant WT STING and AQ STING proteins were overexpressed in Rosetta-gami B (DE3) competent cells (cat. #71136-3, Merck Millipore, Billerica, USA). Bacterial pellets were re-suspended in ice-cold lysis buffer containing 50 mmol·l^−1 TrisCl (cat. # T1503, Sigma Aldrich, Czech Republic) pH 8.0, 300 mmol·l^−1 NaCl, 3 mmol·l^−1 (3-mercaptoethanol (cat. # M6250, Sigma Aldrich, Czech Republic), 10% glycerol (cat. #G5516, Sigma Aldrich, Czech Republic) and 20 mmol·l^−1 imidazole (cat. #15513, Sigma Aldrich, Czech Republic) using Dounce homogenizer. DNase I (cat. # D5025, Sigma Aldrich, Czech Republic) and RNase A (cat. # R^6513, Sigma Aldrich, Czech Republic) were added (final concentration 50 μg/ml) together with MgCl2 (final concentration 5 mmol·l^−1) to the homogenate and bacteria were lysed using French Press G-M™ High-Pressure Cell Press Homogenizer (1500 psi, 3 cycles). Lysate was spun 30,000 g for 20 minutes and supernatant was gently stirred with Ni-NTA resin (cat. #745400.25 Macherey-Nagel, Duren, Germany) for 30 minutes. The resin was poured into a chromatography column, washed with 50 ml buffer A (50 mmol·l^−1 TrisCl (pH 8.0), 800 mmol·l^−1 NaCl, 3 mmol·l^−1β-mercaptoethanol; 10% glycerol; 20 mmol·l^−1 imidazole) and 8-His-SUMO tagged STING proteins were eluted with 15 ml buffer A containing 300 mmol·l^−1 imidazole. The eluted proteins were cleaved with recombinant SUMO protease (80 pig/ml of protein solution, cat. #12588018, ThermoFisher, Waltham, USA). The proteins were further purified by size exclusion chromatography using HiLoad 16/60 Superdex 75 (cat. #28989333, GE Healthcare Bio-Sciences, Pittsburgh, USA) in 50 mmol·l^−1 Tris C1 buffer pH 7.4 containing 150 mmol·l^−1 NaCl, and 10% glycerol. Proteins were concentrated with Amicon® Ultra-15 10 K device (cat. # UFC901008, Merck Millipore, Billerica, USA) and flash frozen in liquid N2.
WT and AQ allelic forms of STING protein were diluted to the final concentration 0.1 mg/ml in 100 mmol·l^−1 TrisCl buffer pH 7.4 containing, 150 mmol·l^−1 NaCl, 1:500 SYPRO Orange (cat. # S6650, ThermoFisher, Waltham, USA) and 150 μM CDN or water. 20 μL solutions of the reaction mixtures were pipetted in triplicates into 96 well optical reaction plates and thermal denaturation of samples were performed on real time PCR cycler (LightCycler® 480 Instrument II—Roche, Basel, Switzerland). The first derivative of the thermal denaturation curves was performed to calculate denaturing temperatures of STING-CDN complexes and STING apoproteins. The thermal shift for each CDN was calculated by subtracting the average denaturing temperature of STING apoprotein from the average denaturing temperature of STING CDN complex.
Background: In DSF a fluorescence change marks the thermal transition of the protein.

The mark [1] stands for this setting: thermal shift, truncated human WT STING 0.1 mg/ml, 150 μM CDN.

WT STING, sequence (Q86WV6 140-343 H232R): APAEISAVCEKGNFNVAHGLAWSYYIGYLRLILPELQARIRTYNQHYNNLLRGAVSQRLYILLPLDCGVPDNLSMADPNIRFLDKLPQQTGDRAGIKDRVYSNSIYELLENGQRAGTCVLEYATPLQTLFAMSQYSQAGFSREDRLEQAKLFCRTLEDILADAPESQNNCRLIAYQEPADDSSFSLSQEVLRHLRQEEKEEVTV

On to `Nc1nc2c(ncn2[C@@H]2C[C@@H]3COP(=O)(O)OC4C(N)[C@H](n5cnc6c(N)ncnc65)O[C@@H]4COP(=O)(O)OC2C3O)c(=O)[nH]1` (stereo partly drawn) [Compound 109, (6R,8R,15R,17R)-9-amino-17-(2-amino-6-oxo-6,9-dihydro-1H-purin-9-yl)-8-(6-amino-9H-purin-9-yl)-3,12,18-trihydroxy-2,4,7,11,13-pentaoxa-3λ^5,12λ^5-diphosphatricyclo[13.2.1.0^6,10]octadecane-3,12-dione], for which the ΔTm at 150 µM under setting [1] turned out to be 5.6 °C. Consider `CSc1nc(N)nc2c1ncn2[C@@H]1O[C@@H]2COP(=O)(O)OC3C(O)[C@@H](COP(=O)(O)OC2C1O)C[C@H]3n1cnc2c(=O)[nH]c(N)nc21` (stereo partly drawn) [Compound 112, (6R,8R,15R,17R)-8-[2-amino-6-(methylsulfanyl)-9H-purin-9-yl]-17-(2-amino-6-oxo-6,9-dihydro-1H-purin-9-yl)-3,9,12,18-tetrahydroxy-2,4,7,11,13-pentaoxa-3λ^5,12λ^5-diphosphatricyclo[13.2.1.0^6,10]octadecane-3,12-dione], for which, under setting [1], the ΔTm at 150 µM stood at 0.6 °C. For `Nc1ncnc2c1ncn2[C@@H]1O[C@@H]2COP(=O)(S)O[C@@H]3[C@H](F)[C@@H](COP(=O)(S)O[C@H]2[C@H]1F)C[C@H]3n1cnc2c(=O)[nH]cnc21` (single isomer, unassigned) [Compound 128c], the “DSF ΔTm WT STING” value under setting [1] is 11.4 °C. For `Cc1cn([C@@H]2O[C@@H]3COP(=O)(O)OC4C(O)[C@@H](COP(=O)(O)OC3C2O)C[C@H]4n2cnc3c(=O)[nH]c(N)nc32)c2ncnc(N)c12` (stereo partly drawn) [Compound 113, (6R,8R,15R,17R)-8-{4-amino-5-methyl-7H-pyrrolo[2,3-d]pyrimidin-7-yl}-17-(2-amino-6-oxo-6,9-dihydro-1H-purin-9-yl)-3,9,12,18-tetrahydroxy-2,4,7,11,13-pentaoxa-3λ^5,12λ^5-diphosphatricyclo[13.2.1.0^6,10]octadecane-3,12-dione], the ΔTm at 150 µM under setting [1] worked out at 6 °C.

In the case of `Nc1nc(N)c2ncn([C@@H]3O[C@@H]4COP(=O)(O)OC5C(O)[C@@H](COP(=O)(O)OC4C3F)C[C@H]5n3cnc4c(=O)[nH]c(N)nc43)c2n1` (stereo partly drawn) [Compound 117, (6R,8R,15R,17R)-17-(2-amino-6-oxo-6,9-dihydro-1H-purin-9-yl)-8-(2,6-diamino-9H-purin-9-yl)-9-fluoro-3,12,18-trihydroxy-2,4,7,11,13-pentaoxa-3λ^5,12λ^5-diphosphatricyclo[13.2.1.0^6,10]octadecane-3,12-dione], the shift in melting temperature (ΔTm) at 150 µM under setting [1] is 9.4 °C. On to `Nc1ncnc2c1ncn2[C@@H]1O[C@@H]2COP(=O)(O)O[C@@H]3[C@H](F)[C@@H](COP(=O)(O)O[C@H]2[C@H]1F)C[C@H]3n1cnc2c(=O)[nH]cnc21` [Compound 127], for which the ΔTm at 150 µM under setting [1] was determined as 8.2 °C. As for `Cc1cn([C@@H]2O[C@@H]3COP(=O)(O)OC4C(O)[C@@H](COP(=O)(O)OC3C2O)C[C@H]4n2cnc3c(=O)[nH]cnc32)c2ncnc(N)c12` (stereo partly drawn) [Compound 123, (6R,8R,15R,17R)-8-{4-amino-5-methyl-7H-pyrrolo[2,3-d]pyrimidin-7-yl}-3,9,12,18-tetrahydroxy-17-(6-oxo-6,9-dihydro-1H-purin-9-yl)-2,4,7,11,13-pentaoxa-3λ^5,12λ^5-diphosphatricyclo[13.2.1.0^6,10]octadecane-3,12-dione], the ΔTm at 150 µM under setting [1] was found to be 6.3 °C. For `Nc1nc2c(ncn2[C@@H]2C[C@@H]3COP(=O)(O)OC4C(O)[C@H](n5cnc6c(=O)[nH]cnc65)O[C@@H]4COP(=O)(O)OC2C3O)c(=O)[nH]1` (stereo partly drawn) [Compound 104, (6R,8R,15R,17R)-17-(2-amino-6-oxo-6,9-dihydro-1H-purin-9-yl)-3,9,12,18-tetrahydroxy-8-(6-oxo-6,9-dihydro-1H-purin-9-yl)-2,4,7,11,13-pentaoxa-3λ^5,12λ^5-diphosphatricyclo[13.2.1.0^6,10]octadecane-3,12-dione], the ΔTm at 150 µM under setting [1] came to 5 °C. Take `Nc1ncc2ncn([C@@H]3O[C@@H]4COP(=O)(O)OC5C(O)[C@@H](COP(=O)(O)OC4C3O)C[C@H]5n3cnc4c(=O)[nH]cnc43)c2n1` (stereo partly drawn) [Compound 119, (6R,8R,15R,17R)-8-(2-amino-9H-purin-9-yl)-3,9,12,18-tetrahydroxy-17-(6-oxo-6,9-dihydro-1H-purin-9-yl)-2,4,7,11,13-pentaoxa-3λ^5,12λ^5-diphosphatricyclo[13.2.1.0^6,10]octadecane-3,12-dione]: the ΔTm at 150 µM under setting [1] amounted to 5.2 °C.

Consider `CSc1ncnc2c1ncn2[C@@H]1O[C@@H]2COP(=O)(O)OC3C(O)[C@@H](COP(=O)(O)OC2C1O)C[C@H]3n1cnc2c(=O)[nH]c(N)nc21` (stereo partly drawn) [Compound 110, (6R,8R,15R,17R)-17-(2-amino-6-oxo-6,9-dihydro-1H-purin-9-yl)-3,9,12,18-tetrahydroxy-8-[6-(methylsulfanyl)-9H-purin-9-yl]-2,4,7,11,13-pentaoxa-3λ^5,12λ^5-diphosphatricyclo[13.2.1.0^6,10]octadecane-3,12-dione], for which, under setting [1], the shift in melting temperature (ΔTm) at 150 µM is 4.9 °C. In the case of `Nc1nc(N)c2ncn([C@@H]3O[C@@H]4COP(=O)(O)OC5C(O)[C@@H](COP(=O)(O)OC4C3O)C[C@H]5n3cnc4c(=O)[nH]c(N)nc43)c2n1` (stereo partly drawn) [Compound 105, (6R,8R,15R,17R)-17-(2-amino-6-oxo-6,9-dihydro-1H-purin-9-yl)-8-(2,6-diamino-9H-purin-9-yl)-3,9,12,18-tetrahydroxy-2,4,7,11,13-pentaoxa-3λ^5,12λ^5-diphosphatricyclo[13.2.1.0^6,10]octadecane-3,12-dione], under setting [1], the ΔTm at 150 µM stood at 5.2 °C.

In the case of `Nc1nc2c(ncn2[C@@H]2C[C@@H]3COP(=O)(O)OC4C(O)[C@H](n5nnc6c(N)ncnc65)O[C@@H]4COP(=O)(O)OC2C3O)c(=O)[nH]1` (stereo partly drawn) [Compound 116, (6R,8R,15R,17R)-8-{7-amino-3H-[1,2,3]triazolo[4,5-d]pyrimidin-3-yl}-17-(2-amino-6-oxo-6,9-dihydro-1H-purin-9-yl)-3,9,12,18-tetrahydroxy-2,4,7,11,13-pentaoxa-3λ^5,12λ^5-diphosphatricyclo[13.2.1.0^6,10]octadecane-3,12-dione], the ΔTm at 150 µM under setting [1] turned out to be 0.9 °C. Take `Nc1nc2c(ncn2[C@@H]2C[C@@H]3COP(=O)(O)OC4C(O)[C@H](n5cnc6c(N)ncnc65)O[C@@H]4COP(O)(=S)OC2C3O)c(=O)[nH]1` (stereo partly drawn) [Compound 101, 2-amino-9-[(6R,8R,15R,17R)-8-(6-amino-9H-purin-9-yl)-3,9,12,18-tetrahydroxy-12-oxo-3-sulfanylidene-2,4,7,11,13-pentaoxa-3λ^5,12λ^5-diphosphatricyclo[13.2.1.0^6,10]octadecan-17-yl]-6,9-dihydro-1H-purin-6-one]: the ΔTm at 150 µM was found to be 12 °C.

For `Nc1ncnc2c1ncn2[C@@H]1O[C@@H]2COP(=O)(S)O[C@@H]3[C@H](F)[C@@H](COP(=O)(S)O[C@H]2[C@H]1F)C[C@H]3n1cnc2c(=O)[nH]cnc21` (single isomer, unassigned) [Compound 128b], the “DSF ΔTm WT STING” value under setting [1] is 7.9 °C.

By ΔTm is commonly meant the change in melting temperature against a reference sample.
